In patent US20230406851A1, “IMIDAZOPYRIDINE COMPOUNDS AND USES THEREOF” (priority 2022, published 2023):
pEC50: −log10 of the molar value.

How the values were obtained:
[1] = test system: rat FCA 96 hr paw model of inflammatory pain (mechanical hyperalgesia); assay: Mechanical hyperalgesia (Ugo Basile analgesy meter) in rat FCA 96 hr paw model of inflammatory pain; type: in vivo; conditions: oral dosing 0.3-1-3-10-20 μmol/kg, 96 h after FCA
Method: (§1) One of the compounds of the present invention was evaluated in an in vivo model of inflammatory pain.
(§2) Male Sprague-Dawley rats (Charles River, St-Constant, Qc, CAN) weighing 200-225 g were utilized for the animal experiment studies. The animals were group-housed in polycarbonate, ventilated cages (filter top) in a controlled environment room (12-h light/dark cycle, 20.5-23.5° C., relative humidity: 40-70%) with food (14% Protein Rodent Maintenance Diet, Harlan Teklad, Madisson, WI, USA) and water ad libidum.
(§3) Inflammation was induced by injection of a single 40 μl Freund's complete adjuvant (FCA) intra-plantar injection into the rat's left hindpaw. All experiments were conducted 96 h after FCA administration. […]
Mechanical hyperalgesia was assessed using the Ugo Basile analgesy meter (Ugo Basile, Comerio, Italy). […] The pressure required to elicit paw withdrawal was determined. […] Paw withdrawal thresholds were calculated as the mean of the two values. […]
(§4) Satellite animals were used to monitor the free plasma concentration of example 15 at the doses and time points used in the nociceptive tests. Free plasma EC50 values in behavioral studies were determined from 4-point concentration-response curves using non-linear regression and a sigmoidal variable slope logistic model (Prism 4.03, GraphPad Software Inc., USA).

[2] = test system: rat FCA 96 hr paw model of inflammatory pain (heat hyperalgesia); assay: Heat hyperalgesia (Plantar Test) in rat FCA 96 hr paw model of inflammatory pain; type: in vivo; conditions: oral dosing 0.3-1-3-10-20 μmol/kg, 96 h after FCA
Method: as §1, §2, §3
Heat hyperalgesia (Plantar Test) was assessed using a Paw Thermal Stimulator to apply a controlled heat to the plantar surface of the affected paw. […] The heat source and timer were then turned on simultaneously; when the animal withdrew the hind paw the number of seconds was recorded. […]
as §4

CNC(=O)c1cc(F)c(-c2nc3cc(C)ccn3c2C[C@H]2CN(C(=O)OC)CCO2)c(F)c1 [Example 15, (S)-methyl-2-((2-(2,6-difluoro-4-(methylcarbamoyl)phenyl)-7-methylimidazo[1,2-a]pyridin-3-yl)methyl)morpholine-4-carboxylate]
reversal of mechanical hyperalgesia [1]: free plasma concentration dependent reversal
pEC50 ([1]; free plasma concentration, read-out: potency (EC50 free plasma concentration) in reversing mechanical hyperalgesia): 7.06
reversal of heat hyperalgesia [2]: free plasma concentration dependent reversal
pEC50 ([2]; free plasma concentration, read-out: potency (EC50 free plasma concentration) in reversing heat hyperalgesia): 7.74
